Laboratory results as given in US20220323442A1, “ENTERIC-COATED PREPARATION COMPRISING XANTHINE OXIDASE INHIBITOR” (Nippon Chemiphar Co., Ltd., priority 2019, published 2022).

Experiment: Volume average particle size (D50) by laser diffraction
Format: physicochemical
Conditions: amorphous Compound 14 (spray dried), dispersed in 0.2% Aerosol OT aqueous solution, ultrasonic 30 seconds
Description: The volume average particle size (D50) can usually be measured by dispersing the measurement sample in a solvent such as water or ethanol and measuring the particle size distribution by a laser diffraction method. The measurement sample may be dispersed in a solvent by irradiation of ultrasonic waves or the like. The particle size distribution can be measured by a particle size distribution measuring device (for example, Shimadzu laser diffraction type particle size distribution measuring device SALD-2200). The volume average particle size (D50) can be determined from the obtained particle size distribution result. A commercially available software (for example, Shimadzu WingSALD-2200 version 1.02) can be used for data collection and analysis.
A volume average particle size (D50) of the obtained amorphous Compound 14 was measured with a Shimadzu laser diffraction type particle size distribution measuring device SALD-2200 using a dispersion obtained by adding about 2 mg of a sample to a 0.2% Aerosol OT aqueous solution and irradiating the solution with ultrasonic waves for 30 seconds for dispersion. Shimadzu WingSALD-2200 version 1.02 software was used for data collection and analysis. […] The volume average particle size (D50) of amorphous Compound 14 obtained from the particle size distribution was 2.949 μm.

volume average particle size (D50): 2.949 μm
Structure (SMILES): N#Cc1cc(-c2nc3c(O)ncnc3s2)ccc1Oc1ccccc1 [Compound 14, 2-(3-Cyano-4-phenoxyphenyl)-7-hydroxythiazolo(5,4-d]pyrimidine]
